Results on 87 compounds are retold here after PubChem BioAssay AID2305 (GlaxoSmithKline (GSK), 2010).

For orientation: IC50 means the concentration that gives 50% inhibition. A lower IC50 goes with greater potency in that assay.

The test system of this assay is P. falciparum 3D7 growth, pLDH absorbance. The assay can be described thus: blood-stage malaria parasite growth potency – strain 3D7, dose response (AID 2305).
Take `CNCCNCc1cccc(-c2ccc(-c3nc4ccc(C(F)(F)F)cc4[nH]3)s2)c1`: the IC50 stood at 820 nM.
For the compound `CC(C)C(=O)n1ncc2c3c(N)nc(N)nc3ccc21`, the IC50 came to 1030 nM.
In the case of `Nc1cc(C=Cc2ccc(O)cc2)nc2ccccc12`, the IC50 was 990 nM.
Compound `Fc1ccc(CNc2ccc3ncc(-c4cccnc4)n3n2)cc1` registered an IC50 of 930 nM.
As to `CCCc1cc(=O)oc2cc(OC)c(C(=O)CC(C)C)c(OC)c12`, the IC50 is 1010 nM.
As for `COc1cc2c(cc1OCCN1CCC(N3CCCCC3)CC1)N(C(=O)/C=C/c1ccccc1Cl)CC2`, the figure is 280 nM; as for `O=C(N[C@@H](CC1CCCCC1)C(=O)NC1CCCCCC1)c1ccc(O)c(-c2ccc(Cl)c(Cl)c2)c1`, 100 nM.
As for `CC1CCc2sc(-c3nnc(SC(C)C(=O)NC4CC4)o3)cc2C1` (configuration not stated), the figure is 1210 nM; as for `Cc1cc(=O)c(-c2cccc(Oc3ccc(Cl)cc3)c2)c(C)[nH]1`, 740 nM; as for `COc1nc2c(N3CCN(CCNCc4ccc5c(n4)NC(=O)CS5)CC3)ccnc2cc1F`, 710 nM.
Consider `CC(=O)Nc1ncc(C(=O)Nc2cccc(-c3ccc(-c4nc5c(C)cccc5[nH]4)cc3)c2)s1`, for which the IC50 was found to be 640 nM.
For `COc1ccc2nccc([C@@H](O)CN3CCC(NC(=O)/C(=C/c4ccccc4)c4ccc(-c5ccccc5)cc4)CC3)c2c1`, the IC50 came to 1050 nM.
Regarding `O=C(Cc1cnc[nH]1)Nc1ccc(-c2ccc(-c3nc4ccc(F)cc4[nH]3)cc2)cc1`, the IC50 was 730 nM.
Regarding `CCOc1cc(CC)ccc1C1CCN(CCN2CCC(NC(=O)c3ccc(-c4ccc(C#N)cc4)cc3)CC2)CC1`, the IC50 worked out at 610 nM.
Consider `O=C(NC1CCC(N2CCCC(OCc3ccccc3)C2)CC1)c1cc2ccccc2[nH]1` (configuration not stated), for which the IC50 stood at 1210 nM.
`O=[N+]([O-])c1ccc2c(c1)c1ccccc1n2Cc1ccccc1O`: the IC50 is 1110 nM.
Turning to `Cc1cccc2[nH]c(-c3ccc(-c4cccc(NC(=O)c5ccncc5)c4)cc3)nc12`, the IC50 was 840 nM.
Consider `COc1ccc(CN2CCCC(Nc3ccc(F)c(F)c3)C2)c(O)c1` (configuration not stated), for which the IC50 was 1090 nM.
As for `O=C(NC1CCN(Cc2ccccc2O)C1)c1ccc(-c2ccccc2)cc1` (configuration not stated), the figure is 840 nM; as for `Cc1cc2nc(-c3cc(-c4cccc(NS(C)(=O)=O)c4)cnc3N)[nH]c2cc1C`, 670 nM.
Take `O=C(Cn1c(CCc2cccc(F)c2F)nc(=O)c2cccnc21)N(Cc1ccc(-c2ccc(C(F)(F)F)cc2)cc1)C1CCN(C2CCOCC2)CC1`: the IC50 worked out at 830 nM.
As for `Cc1ccc2[nH]ncc2c1N(CC1CCCCC1)c1ccnc(Nc2ccc(OCC(O)CN3CC=CCC3)cc2)n1` (configuration not stated), the figure is 620 nM; as for `Cc1cc(OCc2ccccc2)c(OCc2ccccc2)cc1C(O)CN(C)Cc1ccccc1` (configuration not stated), 810 nM.
As for `COc1cc(CNCCCNc2cc(=O)c3ccccc3[nH]2)c2c(c1)C(C)CN2C(=O)OC(C)(C)C` (configuration not stated), the figure is 730 nM.
Compound `N#Cc1ccc2c(c1)CCN(CCC1CCC(NC(=O)/C=C/c3c[nH]c4c(Br)cccc34)CC1)CC2` (configuration not stated) displayed an IC50 of 380 nM.
As to `Cc1nc(N/C=C/c2ccc(O)cc2)cc(N2CCCC2)n1`, the IC50 is 1070 nM.
The compound `CN(C)c1ccc(CN2CCC(NC(=O)c3ccc(-c4ccccc4F)s3)CC2)cc1` gave an IC50 of 1120 nM.
`COc1cc2ncnc(Nc3ccc(OCc4ccccc4)c(I)c3)c2cc1OC` displayed an IC50 of 710 nM.
Take `O=C(Nc1ccncc1)c1cc(C(=O)Nc2ccncc2)cc([N+](=O)[O-])c1`: the IC50 is 610 nM.
`Cc1csc(-c2nonc2NC(=O)COc2ccccc2C(C)C)n1` registered an IC50 of 550 nM.
Compound `COC(=O)c1cc(C(O)CNC(C)CCc2cccc(F)c2)ccc1O` (configuration not stated) gave an IC50 of 1180 nM.
As for `CCc1cc(NC2CCN(C)CC2)nc(Nc2ccc(C)cc2)n1`, the figure is 690 nM.
Turning to `O=C(Nc1ccc(F)c(C(F)(F)F)c1)NC1CCN(CCCCCNC(=O)[C@@H]2C[C@H]2c2ccc(Cl)c(Cl)c2)CC1`, the IC50 stood at 660 nM.
`Cc1cc2nc(-c3ccc(C(=O)NCc4ccc(C(C)(C)C)cc4)cc3)[nH]c2cc1C`: the IC50 is 770 nM.
For `Cn1nccc1C(=O)NCCNCc1ccc(-c2ccc(-c3nc4ccc(F)cc4[nH]3)cc2)cc1`, the IC50 was found to be 300 nM.
On to `CCCc1cc(Cc2cnc(N)nc2N)cc(OCCCCCC(=O)O)c1OC`, for which the IC50 came to 160 nM.
`O=C(Cc1ccccn1)Nc1cccc(-c2cccc(-c3nc4ccc(C(F)(F)F)cc4[nH]3)c2)c1` came in with an IC50 of 610 nM.
For the compound `Cc1cc(C(F)(F)F)nn1-c1ccc(NC(=O)c2ccco2)cc1`, the IC50 turned out to be 730 nM.
As for `Cn1nc(C(F)(F)F)c(-c2ccc(Br)cc2)c1NC(=O)Cc1ccccc1F`, the figure is 160 nM; as for `COc1cccc(-c2cc(C(=O)NC3CCC(N4CCC(c5ccccc5C)CC4)CC3)[nH]n2)c1` (configuration not stated), 1120 nM; as for `CC(C)n1ncc2c(C(=O)N3CCCCCC3)cc(-c3ccccc3)nc21`, 790 nM.
As for `Cc1ccc(NC(=O)Nc2ccc(Cl)c(C(F)(F)F)c2)cc1-c1ccc(C(=O)Nc2ccncc2)cc1`, the figure is 260 nM.
The compound `CC[C@H](C)CNC(=O)c1ccnc(-c2cccc(CN(C)C3CCN(C)CC3)c2)c1` yielded an IC50 of 900 nM.
As for `Cc1ccc(CN2CCC(Oc3cccc(NC(=O)c4ccc(C(F)(F)F)cc4)c3)CC2)cc1`, the figure is 1020 nM; as for `O=C(NCCCCN1CCC[C@@H]2c3cccc(O)c3CC[C@@H]21)c1ccc(-c2ccccc2)cc1`, 1170 nM.
As for `COc1ccc(NC(=O)c2c(NC(=O)c3cccs3)sc3c2CCCC3)cc1`, the figure is 450 nM; as for `COc1cc(OC)cc(-c2nc3c(C#N)c(OCCN(C)C)ccc3[nH]2)c1`, 650 nM.
As for `Cc1cc(F)ccc1-c1nc(Nc2ccncc2)c2ccn(C)c2n1`, the figure is 940 nM.
Compound `Cc1ccc(F)cc1S(=O)(=O)Nc1ccc(CCN2CCC(N3CCCCC3)CC2)cc1` yielded an IC50 of 720 nM.
Take `NC(N)=Nc1nc(-c2cccc(NCCCCCCCCON3C(N)=NC(N)=NC34CCCCC4)c2)cs1`: the IC50 is 230 nM.
Turning to `O=c1[nH]ccc2nc(N[C@@H]3CCNC3)nc(Nc3ccc4c(c3)S(=O)(=O)CC4)c12`, the IC50 came out at 380 nM.
As for `COc1cc(Nc2nccc(N3CCC(NC(=O)C4COc5ccccc5O4)C3)n2)cc(OC)c1OC` (configuration not stated), the figure is 920 nM; as for `CN(CCN)Cc1ccc(-c2ccc(-c3nc4ccc(F)cc4[nH]3)s2)cc1`, 1070 nM.
In turn, `O=[N+]([O-])c1ccc2nccnc2c1` returned an IC50 of 1070 nM.
As for `COC(=O)C(NC(=O)NC1CCN(c2ccnc(Nc3ccc(F)cc3)n2)C1)c1ccccc1` (configuration not stated), the figure is 1050 nM; as for `O=S(=O)(NCCN1CCCC1)c1ccc(-c2cccc(CNCc3ccc(F)cc3)c2)cc1`, 730 nM; as for `O=C1OC2(CCN(C(=O)c3ccc(-n4cnnn4)cc3)CC2)CN1Cc1ccc(Cl)c(Cl)c1`, 720 nM.
Compound `COc1ccc2nccc([C@@H](O)CN3CCC(NCc4ccc5cccc(O)c5n4)CC3)c2n1` returned an IC50 of 910 nM.
Regarding `O=C(NC1CC1)c1cnc(N2CCN(Cc3ccc(Cl)cc3)CC2)c(Cl)c1`, the IC50 is 850 nM.
Compound `CC(C)CNC(=O)c1cncc(-c2ccc(CNC3Cc4ccccc4C3)cc2)c1` showed an IC50 of 700 nM.
For the compound `O=C(Nc1ccc(OC2CCN(Cc3ccccc3)CC2)c(Cl)c1)c1ccsc1`, the IC50 worked out at 900 nM.
As for `Cc1cc2c(cc1C(F)(F)F)N(C(=O)Nc1cccc(C(=O)NC3CCN(Cc4ccccc4)CC3)c1)CC2`, the figure is 910 nM; as for `CCC[C@@H]([C@@H](CC1CCCCC1)C(=O)N[C@H](C(=O)Nc1nccc(N)n1)C(C)(C)C)N(O)C=O`, 530 nM; as for `COc1cc2c(cc1OC)C(C(=O)Nc1ccc(C(F)(F)F)cc1)C(c1cccs1)N(C)C2=O` (configuration not stated), 160 nM.
As for `FC(F)(F)c1ccc2nc(-c3ccc(-c4ccc(CN5CCN(c6ccncc6)CC5)cc4)cc3)[nH]c2c1`, the figure is 60 nM.
In the case of `CCN(CCCN1CCCCC1)c1cc(C)nc(Nc2ccc(Cl)cc2C)n1`, the IC50 worked out at 730 nM.
Regarding `CC(C)c1ccc2c(c1)C(=O)c1ccc(C(=O)O)cc1S2(=O)=O`, the half-maximal inhibitory concentration (IC50) is 470 nM.
As for `CS(=O)(=O)CCNCc1ccc(-c2cc3c(Nc4ccc(OCc5cccc(F)c5)c(Cl)c4)ncnc3s2)[nH]1`, the figure is 840 nM; as for `NC1CCCN(Cc2cccc(-c3cccc(-c4nc5ccccc5[nH]4)c3)c2)C1` (configuration not stated), 640 nM.
As for `CCC(C)OC(=O)C1=C(C)NC2=C(C(=O)CC(c3ccc(OC)c(OC)c3)C2)C1c1cccc(O)c1` (configuration not stated), the figure is 190 nM; as for `CCn1cnc2c(N3CCCC3=O)cc(C(=O)N[C@@H](Cc3ccccc3)[C@H](O)CNC3CCCCC3)cc21`, 570 nM.
For `COc1ccc(-c2cnc(N)nc2N)cc1Cl`, the IC50 worked out at 1400 nM.
For `COc1ccc(CN(C)CCCc2ccc(NC(=O)c3cc4ccccc4[nH]3)cc2)cc1OC`, the IC50 came to 730 nM.
`c1ccc(Oc2ccc(Nc3ccnc(Nc4cccc(CNCCCN5CCOCC5)c4)n3)cc2)cc1` came in with an IC50 of 1040 nM.
The compound `Cc1cc(-c2ccc3c(c2)CCN(CCCOc2ccc4c(c2)CCN4C(=O)/C=C/c2ccccc2Cl)CC3)no1` registered an IC50 of 1230 nM.
The compound `CCCCCCN(C(=O)OCc1ccccc1)[C@@H]1CCN(C(=O)OC(C)(C)C)C[C@H]1C(=O)OCC` came in with an IC50 of 370 nM.
`N#Cc1ccc2c(c1)CCN(CCC1CCC(NC(=O)/C=C/c3ccc(Cl)c(Cl)c3)CC1)CC2` (configuration not stated) yielded an IC50 of 420 nM.
`Nc1c(Cl)cc(C(O)CNCCCCCCOCCc2ccc(CO)s2)cc1Cl` (configuration not stated) yielded a half-maximal inhibitory concentration (IC50) of 1050 nM.
In the case of `Clc1ccc(OC2CCC(Cn3ccnc3)(c3ccc(Cl)cc3Cl)CC2)c(Cl)c1` (configuration not stated), the IC50 was 800 nM.
`COc1ccc(-c2cccc(NC(=O)c3ccc(C#N)cc3)c2)cc1CN1CCN(C)CC1` showed an IC50 of 990 nM.
Regarding `COc1cc(Cc2cnc(N)nc2N)cc(OCCCCCCN)c1OC`, the IC50 was 190 nM.
In the case of `CS(=O)(=O)c1ccc(CCNCc2ccc(-c3ccc(CNC4CCN(Cc5ccccc5)CC4)cc3)nc2)cc1`, the IC50 turned out to be 250 nM.
Compound `CC(=O)Nc1ncc(C(=O)Nc2ccc(-c3cccc(-c4nc5ccc(C(F)(F)F)cc5[nH]4)c3)cc2)s1` gave an IC50 of 260 nM.
As for `[O-]c1n[n+](C2CCCCC2)no1`, the IC50 came to 930 nM.
Turning to `CCCN(Cc1nnc(-c2cccs2)o1)C(=O)CSc1nnnn1-c1ccc(C)c(C)c1`, the IC50 was 580 nM.
Regarding `CC(C)(C)c1ccc(CNC(=O)c2cc(CNC3CCNCC3)ccc2O)cc1`, the half-maximal inhibitory concentration (IC50) is 710 nM.
The compound `O=C(Nc1ccc2nc3n(c(=O)c2c1)CCCCC3)C(=O)N1CCC(Cc2ccccc2)CC1` showed an IC50 of 760 nM.
